Assays:
CD15+/CD14− cells = assay: Respiratory burst assay, dihydrorhodamine-123 / PMA (Example 39); format: cell-based, human; details: Formula I-expanded Differentiation Cultures, day 13; 200 nM PMA 30 minutes
Experimental: On day 13 of Granulocyte Differentiation Culture, a portion of the culture was removed for in vitro analysis of granulocyte function through two separate assays for phagocytosis and respiratory burst.
In the respiratory burst assay, the ability of cells to generate reactive oxygen species (used to kill ingested bacteria) was measured. Cells were first pulsed for 15 minutes with dihydrorhodamine-123, a reagent that fluoresces only after it has been oxidized to rhodamine 123. Following this incubation, cells were treated for 30 minutes with 200 nM phorbol 12-myristate 13-acetate (PMA) to non-specifically activate the respiratory burst. Control samples without PMA were also prepared. Following this incubation, cells were stained with antibodies to CD15 and CD14, washed thoroughly, then analyzed via flow cytometry on an Attune flow cytometer. CD15+/CD14− cells were quantified for rhodamine 123 fluorescence, indicating activation of oxidative burst.

[1] = test system: CD3+ and CD3+/CD8+ T cells; assay: T-cell Maturation and CD8 Maturation Culture (Example 41); format: cell-based, human
Experimental: Following 14 days in Lymphoid Progenitor Differentiation Cultures, cells were placed into T- and NK-cell Maturation Cultures.
For T-cell Maturation Cultures, 24-well non-TC-treated plates were coated with StemSpan Lymphoid Differentiation Coating Material (STEMCELL Technologies) according to the manufacturer's instructions. Immediately prior to initiation of T-cell Maturation Culture, wells were washed with PBS. Cells from L Diff Cultures were plated at 50,000 cells/well in 500 μl of T Cell Progenitor Maturation Medium, comprising StemSpan SFEM II medium with StemSpan T Cell Progenitor Maturation Supplement.
Following 4 days of culture, NK- and T-cell Maturation Cultures' medias were replenished by adding an equal volume of the same culture media added on day 14. At days 21 and 25 of NK- or T-cell Maturation Cultures, half-media changes were performed by removing half of the total volume of media without disturbing cells and adding media freshly prepared as on day 14.
Following 7 and 14 days in NK- and T-cell Maturation Culture (21 and 28 days from initiation of Lymphoid Differentiation Culture, respectively), cells were stained with antibodies to CD56, CD3, CD161, CD94, and CD16 and analyzed via flow cytometry to quantify T and NK lineage phenotypes.
T-cell Maturation Cultures were continued for an additional 14 days, plated at 50,000-75,000 cells/well into 24-well non-TC-treated plates freshly coated with Lymphoid Differentiation Coating Material as above. Cultures were continued for this 14 day-period with half-media changes every 3-4 days.
Following a total of 42 days in Lymphoid Progenitor Differentiation and T-cell Maturation cultures, T cells from 14-day+Formula I-expanded L Diff Culture and 14-day DMSO-expanded L Diff Culture were placed into CD8 Maturation Culture as follows: A 24-well plate was coated with Lymphocyte Differentiation Coating Medium as above. […] Following 6 days in this maturation medium, cells were analyzed for mature T cell phenotypes by staining for CD3, CD8a, CD4, CD56 and performing flow cytometry on an Attune N×T flow cytometer. […]

[2] = CD8, Lymphoid Diff day 49, +Formula I-expanded CD34+ cells

SMILES: CC(C)(C)C(=O)Nc1ccc2c(c1)C(O)c1ccccc1-2 (stereo not shown) [Compound 1.010]
- cells that activated respiratory burst when stimulated with PMA (CD15+/CD14− cells): 56%
- % Mature cells: CD4+/CD8α+ of Live/CD3+/CD56− [1, 2]: 0.5%
- % Mature cells: CD4−/CD8α+ of Live/CD3+/CD56− [1, 2]: 95%
- CD8a+ cells, of CD3+ cells ([1]; CD34+ cells first expanded for 14 days in +Formula I conditions): 95%
